From patent US6316190A (The United States of America as represented by the …)

Assays:
HIV-1 = conditions: cited from earlier work
[1] = tested on: synthetic peptide with a HIV-1 CCHC zinc finger; conditions: cited from earlier work
[2] = tested on: recombinant HIV-1 NC protein; assay: Surface plasmon resonance (BIAcore) binding of NC to immobilized biotinylated oligonucleotides; conditions: for NC binding to oligonucleotide (level and stability during washout): oligonucleotide on chip, 0.15M NaCl; for affinity for HIV-1 NC protein: oligonucleotides including the subsequence
Method: In a preferred embodiment, the assay format is surface plasmon resonance (SPR). The Kd and kinetics of the trial compound-protein interaction are determined in a BIAcore, a biosensor based on surface plasmon resonance. For this technique, protein or trial compound is coupled to a derivatized sensor chip capable of detecting changes in mass. When trial compound or protein is passed over the sensor chip, it binds to the trial compound or protein coupled to the chip, resulting in an increase in mass which is quantifiable. Measurement of the rate of association as a function of trial compound or protein concentration can be used to calculate the association rate constant (kon). After the association phase, buffer is passed over the chip and the rate of dissociation (koff) is determined. Kon is typically measured in the range 1.0×10^2 to 5.0×10^6 and koff in the range 1.0×10^-1 to 1.0×10^-6. The equilibrium constant Kd is often calculated as koff/kon and thus is typically measured in the range 10^-5 to 10^-12. Affinities measured in this manner correlate well with affinities measured in solution by fluorescence quench titration. See, Fisher and Fivash (1994) Curr. Opin. Biotechnol. 5:389-395; Fisher et al. (1994) Methods 6:389-395; Johnsson et al., (1991) Anal. Biochem., 198:268-277; Karlsson et al., (1991) J. Immunol. Methods., 145:229-240; and Johnsson et al., (1991) Anal. Biochem. 198:268-277.
NC has traditionally been described as a single-stranded nucleic acid-binding protein. To determine whether this conclusion is accurate under SPR conditions, we initially measured binding of recombinant HIV-1 NC to a single-stranded 28-base oligodeoxynucleotide. The sequence of this oligonucleotide contains 20 bases from the 3' end of HIV-1 proviral DNA (i.e., the 3' end of U5). Surface plasmon resonance (SPR) analysis was performed with biotinylated DNA immobilized at its 3' end.
This possibility was analyzed systematically in the following experiment. Four SPR chips were made containing TGTG (SEQ ID NO:3) at different densities. For each chip, the amount of streptavidin (which holds the biotinylated oligonucleotide on the chip) was measured by SPR analysis before the addition of TGTG (SEQ ID NO:3). The amount of TGTG (SEQ ID NO:3) added to each chip was then quantitated by SPR. Thus, for each chip the ratio of TGTG (SEQ ID NO:3) to streptavidin was empirically determined. Since a streptavidin molecule has four binding sites for biotinylated ligands, the number of streptavidin molecules occupied by 0, 1, 2, 3, or 4 oligonucleotides could be calculated from this ratio, using binomial expansion. Finally, the ability of each chip to bind NC with high affinity was determined by SPR.
Another important aspect of the experiments described here is that the analyses were performed in 0.15M NaCl. The sequence-independent electrostatic interaction between the positively charged NC protein and nucleic acids is obviously much lower at this moderate ionic strength than in more dilute buffers, so that the differences in affinity for different oligonucleotides are more apparent. […] The additional affinity of NC for a preferred sequence was shown by this analysis to be largely hydrophobic.

HIV-1 NC protein = assay: Tryptophan fluorescence titration of NC with oligonucleotide, then NaCl dissociation; assay type: binding; conditions: for apparent affinity of NC: fluorescence; for hydrophobic component, apparent affinity constant at 1M NaCl (K°) / K° relative to expected value (weighted average of corresponding homopolymers): 1M NaCl
[3] = tested on: "finger swap" mutants of NC (1.1, 2.2, 2.1); assay: SPR binding of "finger swap" mutant NC proteins to the 5' site; set-up: species or system HIV-1
[4] = tested on: 2.2 finger swap mutant protein; assay: Fluorescence binding of 2.2 finger swap mutant protein; set-up: species or system HIV-1; conditions: versus wild-type protein
[5] = target: T1, HIV-1 nucleocapsid protein (NC), wild type (Human immunodeficiency virus 1, UniProt P12493 P12493:378-432); assay: SPR; 0.15 M NaCl; second independent mode (fast-released fraction); conditions: label: biotin (SPR)
[6] = target: T1, HIV-1 nucleocapsid protein (NC), wild …; assay: SPR; 0.15 M NaCl; tight binding mode (slow washout); conditions: label: biotin (SPR)
[7] = target: T1, HIV-1 nucleocapsid protein (NC), wild …; assay: SPR; TGTG sufficient for high-affinity binding in A context; conditions: label: biotin
[8] = target: T1, HIV-1 nucleocapsid protein (NC), wild …; assay: SPR; TGTG replaced by AAAA; no high-affinity binding; conditions: label: biotin
[9] = target: T1, HIV-1 nucleocapsid protein (NC), wild …; assay: SPR; two NC per oligo; conditions: label: biotin
[10] = target: T1, HIV-1 nucleocapsid protein (NC), wild …; assay: SPR; four NC per oligo; conditions: label: biotin
[11] = target: T1, HIV-1 nucleocapsid protein (NC), wild …; assay: SPR; higher level and slower washout than site I DNA
[12] = target: T1, HIV-1 nucleocapsid protein (NC), wild …; assay: SPR; conditions: label: 3'-biotin
[13] = target: T1, HIV-1 nucleocapsid protein (NC), wild …; assay: SPR; 0.15 M NaCl; most stable of three subsites; relatively high affinity also by fluorescence; conditions: label: biotin
[14] = target: T1, HIV-1 nucleocapsid protein (NC), wild …; assay: SPR; negligible binding; conditions: label: biotin
[15] = quantitative analysis of SPR data

## NC(=O)c1cccc(N=O)c1 [NOBA, 3-nitroso benzamide]
HIV-1
  effect on virus: viral inactivation
[1]
  effect on zinc of zinc finger peptide: loss of zinc

## (TG)5
[2]; SPR
  number of NC molecules bound per oligonucleotide: two

## (TG)10
[2]; SPR
  number of NC molecules bound per oligonucleotide: four

## (dT)9
HIV-1 NC protein
  hydrophobic component, apparent affinity constant at 1M NaCl (K°): 5×10^1

## AAAATCTCTA [site II]
[2]; SPR
  NC binding to oligonucleotide (level and stability during washout): negligible binding

## AAAATGTGAA
[2]; SPR
  NC binding to oligonucleotide (level and stability during washout): binding

## GACTTGTGG [Site I]
[3]
  binding of mutant proteins: some binding
[3]; versus wild-type protein
  washout of mutant proteins: washed out considerably faster than the wild-type protein
[4]
  apparent affinity of 2.2 mutant: lower apparent affinity than that of wild-type protein
HIV-1 NC protein
  apparent affinity of NC: relatively high affinity
[2]; SPR
  dependence of binding on oligonucleotide density: essentially independent
  NC binding to oligonucleotide (level and stability during washout): most stable binding

## GACTTGTGGA
[2]
  affinity for HIV-1 NC protein: nanomolar range

## GACUUGUGG (chemistry not given here)
[2]; SPR
  NC binding to oligonucleotide (level and stability during washout): at a higher level and washes out more slowly than the binding to the DNA
[2]
  affinity for HIV-1 NC protein: nanomolar range

## GCAGTGCAT [site III]
[2]; SPR
  NC binding to oligonucleotide (level and stability during washout): significant binding, but at a lower level and a more rapid loss during the washout than was observed with site I

## GTGTG
[2]; SPR
  number of NC molecules bound per oligonucleotide: single
  NC binding to oligonucleotide (level and stability during washout): high-affinity binding sites

## TGTG (DNA, backbone not given here)
[2]; highest oligonucleotide density on chip (FIG. 6D)
  high-affinity binding of NC: high-affinity binding is achieved
[2]; oligonucleotide at low density (FIG. 6A)
  initial binding of NC: substantial degree of initial binding

## TGTGT
[2]; SPR
  number of NC molecules bound per oligonucleotide: single
  NC binding to oligonucleotide (level and stability during washout): high-affinity binding sites

## TGTGTG
[2]
  affinity for HIV-1 NC protein: nanomolar range

## TGTGTGTG [d(TG)4]
HIV-1 NC protein
  K° relative to expected value (weighted average of corresponding homopolymers): 145 times
  hydrophobic component, apparent affinity constant at 1M NaCl (K°): 2.3×10^4
  apparent affinity of NC: highest affinity
HIV-1 NC protein; d(TG)4 versus d(IT)4, inferred from difference in affinity
  difference in binding energy: ~ 1 kcal/mole
[2]; SPR
  dependence of binding on oligonucleotide density: essentially independent
  number of NC molecules bound per oligonucleotide: one
[2]; [15]
  Ka, binding system released more rapidly during washout: 1×10^7
  Ka, binding system responsible for slow washout: 2e+09 M⁻¹

## d(G)9
HIV-1 NC protein
  apparent affinity of NC: higher than that for the other hompolymeric oligodeoxynucleotides
[2]; SPR
  extent of binding and retention of NC during washout relative to site 1: far lower than seen with site 1 sequences
  NC binding to oligonucleotide (level and stability during washout): clear preference

## d(GA)4
HIV-1 NC protein
  K° relative to expected value (weighted average of corresponding homopolymers): coincided with the value that would be predicted

## d(IT)4
HIV-1 NC protein
  K° relative to expected value (weighted average of corresponding homopolymers): 10 times

## d(T)10
[2]; SPR
  NC binding to oligonucleotide (level and stability during washout): detectable binding

## TGTGTGTG (ssDNA) [d(TG)4]
[5]
  Ka: 1e+07 M⁻¹
[6]
  Ka: 2e+09 M⁻¹

## AAAATGTGAA (ssDNA)
[7]
  binding result: binds

## GACTAAAAGA (ssDNA)
[8]
  binding result: no binding

## TGTGTGTGTG (ssDNA) [(TG)5]
[9]
  binding result: binds

## TGTGTGTGTGTGTGTGTGTG (ssDNA) [(TG)10]
[10]
  binding result: binds

## GACUUGUGG (ssRNA) [site I RNA]
[11]
  binding result: binds

## GACTTGTGGAAAATCTCTAGCAGTGCAT (ssDNA) [28-mer ss oligodeoxynucleotide (HIV-1 U5 3' end)]
[12]
  binding result: binds

## GACTTGTGG (ssDNA) [site I]
[13]
  binding result: binds

## AAAATCTCTA (ssDNA) [site II]
[14]
  binding result: no binding
